≈ marks a conversion by molar mass, not a printed value. Calls of active or inactive are those of the source. The rule behind the calls is not given here.
Tests used:
Enterococcus faecium [1] = experiment: Potency index, ratio of Vancomycin MIC to test compound MIC for vancomycin-resistant Enterococcus faecium incubated for 16 to 24 hrs by CLSI based broth microdilution method; type: functional; details: time 16-24 hrs
Acinetobacter baumannii = experiment: Antibacterial activity against Carbapenem-resistant Acinetobacter baumannii clinical isolate incubated for 16 to 24 hrs by CLSI based broth microdilution method; type: functional; details: time 16-24 hrs
Staphylococcus aureus [2] = experiment: Antibacterial activity against Staphylococcus aureus Mu50 assessed as fold decrease in MIC at 1:1 ratio of compound and Ac2KAA at […] incubated for 16 to 24 hrs by absorbance based assay relative to control; type: functional; details: dose 128 µg/ml; time 16-24 hrs
Enterococcus faecium [3] = experiment: Antibacterial activity against vancomycin-resistant Enterococcus faecium harboring VanA phenotype clinical isolate incubated for 16 to 24 hrs by CLSI based broth microdilution method; type: functional; details: time 16-24 hrs
[4] = MRT (infinity) in CD-1 mouse at 10 mg/kg, iv measured for 24 hrs by UPLC analysis; type: ADME, organism-based; details: in vivo
Staphylococcus aureus [5] = experiment: Potency index, ratio of Vancomycin MIC to test compound MIC for vancomycin-intermediate Staphylococcus aureus incubated for 16 to 24 hrs by CLSI based broth microdilution method; type: functional; details: time 16-24 hrs
Escherichia coli [6] = experiment: Bactericidal activity against Escherichia coli AB1157 assessed as reduction in bacterial count at 4 times MIC measured after 24 hrs by time kill assay; type: functional
Escherichia coli [7] = experiment: Bactericidal activity against Escherichia coli AB1157 assessed as reduction in bacterial count at 8 times MIC measured after 24 hrs by time kill assay; type: functional
Escherichia coli [8] = experiment: Induction of cytoplasmic membrane depolarization in Escherichia coli AB1157 at 5 uM by DiSC3(5) staining based analysis; type: functional, organism-based
Staphylococcus aureus [9] = experiment: Induction of membrane disruption in Staphylococcus aureus MRSA252 assessed as leakage of protoplasm content at 1 to 8 ug/ml incubated for 4 to 24 hrs by SEM analysis; type: functional, organism-based; details: dose 1-8 µg/ml, time 4-24 hrs
Enterococcus faecalis [10] = experiment: Induction of cytoplasmic membrane depolarization in Enterococcus faecalis ATCC29212 by DiSC3(5) staining based analysis; type: functional, organism-based
Peptidoglycan [11] = experiment: Potency index, ratio of vancomycin Ka to test compound Ka for Ac-Lys(D-isoAsp)-D-Ala-D-Ala lipid II model peptide moiety
Staphylococcus aureus [12] = experiment: Potency index, ratio of Norvancomycin MIC to test compound MIC for vancomycin-intermediate Staphylococcus aureus incubated for 16 to 24 hrs by CLSI based broth microdilution method; type: functional; details: time 16-24 hrs
Peptidoglycan [13] = experiment: Binding affinity to Ac-Lys(D-isoAsp)-D-Ala-D-Ala lipid II model peptide moiety assessed as change in Gibb's free energy by ITC analysis
[14] = Clearance in CD-1 mouse at 10 mg/kg, iv measured for 24 hrs by UPLC analysis; type: ADME, organism-based; details: in vivo
Escherichia coli [15] = experiment: Bactericidal activity against Escherichia coli AB1157 assessed as reduction in bacterial count at MIC measured after 24 hrs by time kill assay; type: functional
Staphylococcus aureus [16] = experiment: Bacteriostatic activity against methicillin-resistant Staphylococcus aureus MRSA252 at MIC measured after 24 hrs by time kill assay; type: functional, organism-based
[17] = Half life in CD-1 mouse at 10 mg/kg, iv measured for 24 hrs by UPLC analysis; type: ADME, organism-based; details: in vivo
Peptidoglycan [18] = experiment: Potency index, ratio of vancomycin Ka to test compound Ka for Ac-Lys(Gly5)-D-Ala-D-Ala lipid II model peptide moiety
Peptidoglycan [19] = experiment: Binding affinity to Ac-Lys(Gly5)-D-Ala-D-Ala lipid II model peptide moiety assessed as change in Gibb's free energy by ITC analysis
Staphylococcus aureus [20] = experiment: Induction of drug resistance in vancomycin-sensitive Staphylococcus aureus MRSA252 assessed as change in MIC measured after 16 days of serial passages by broth microdilution method; type: functional, organism-based; details: time 16.0 day
Staphylococcus aureus [21] = experiment: Post-antibiotic effect in Staphylococcus aureus MRSA252 assessed as decrease in bacterial titer at 20 times measured after 7 hrs; type: functional
Escherichia coli [22] = experiment: Potency index, ratio of Norvancomycin MIC to test compound MIC for Escherichia coli […] incubated for 16 to 24 hrs by CLSI based broth microdilution method; type: functional; details: time 16-24 hrs
Staphylococcus aureus [23] = experiment: Induction of cytoplasmic membrane depolarization in methicillin-resistant Staphylococcus aureus MRSA252 by DiSC3(5) staining based analysis; type: functional, organism-based
Enterococcus faecium [24] = experiment: Antibacterial activity against vancomycin-resistant Enterococcus faecium harboring VanM phenotype incubated for 16 to 24 hrs by CLSI based broth microdilution method; type: functional; details: time 16-24 hrs
Escherichia coli [25] = experiment: Potency index, ratio of Vancomycin MIC to test compound MIC for Escherichia coli […] incubated for 16 to 24 hrs by CLSI based broth microdilution method; type: functional; details: time 16-24 hrs
Staphylococcus aureus [26] = experiment: Induction of drug resistance in vancomycin-intermediate Staphylococcus aureus Mu50 assessed as change in MIC after 20 passages by broth microdilution method; type: functional, organism-based
Escherichia coli [27] = experiment: Inhibition of peptidoglycan biosynthesis in Escherichia coli AB1157 assessed as increase in accumulation of Park's nucleotide at 16 ug/ml incubated for 2 hrs by RP-HPLC analysis; type: functional, organism-based; details: dose 16.0 µg/ml
Peptidoglycan [28] = experiment: Binding affinity to Ac-Lys(Ac)-D-Ala-D-Ala lipid II model peptide moiety assessed as association constant by ITC analysis
Staphylococcus aureus [29] = experiment: Induction of cytoplasmic membrane permeabilization in methicillin-resistant Staphylococcus aureus MRSA252 measured for 40 mins by PI/NPN staining based analysis; type: functional, organism-based; details: dose 1-128 µg/ml
Enterococcus faecium [30] = experiment: Antibacterial activity against vancomycin-resistant Enterococcus faecium harboring VanB phenotype incubated for 16 to 24 hrs by CLSI based broth microdilution method; type: functional; details: time 16-24 hrs
Pseudomonas aeruginosa = experiment: Antibacterial activity against Pseudomonas aeruginosa PAO1 incubated for 16 to 24 hrs by CLSI based broth microdilution method; type: functional; details: time 16-24 hrs
Escherichia coli [31] = experiment: Bactericidal activity against Escherichia coli AB1157 assessed as reduction in bacterial count measured after 24 hrs by time kill assay; type: functional, organism-based
Peptidoglycan [32] = experiment: Potency index, ratio of vancomycin Ka to test compound Ka for Ac-Lys(D-isoAsp)-D-Ala-D-Ala lipid II model peptide moiety assessed as association constant by ITC analysis
Staphylococcus aureus [33] = experiment: Antibacterial activity against Staphylococcus aureus Mu50 at 1:1 ratio of compound and phosphatidylglycerol at […] incubated for 16 to 24 hrs by absorbance based assay; type: functional, organism-based; details: dose 128.0 µg/ml, time 16-24 hrs
Staphylococcus aureus [34] = experiment: Bactericidal activity against methicillin-resistant Staphylococcus aureus MRSA252 assessed as reduction in bacterial count at 4 to 8 times MIC measured after 24 hrs by time kill assay; type: functional
Peptidoglycan [35] = experiment: Binding affinity to Ac-Lys(Ac)-D-Ala-D-Ala lipid II model peptide moiety assessed as change in Gibb's free energy by ITC analysis
Enterococcus faecalis [36] = experiment: Antibacterial activity against Enterococcus faecalis clinical isolate incubated for 16 to 24 hrs by CLSI based broth microdilution method; type: functional; details: time 16-24 hrs
Enterococcus faecium [37] = experiment: Potency index, ratio of Norvancomycin MIC to test compound MIC for vancomycin-resistant Enterococcus faecium incubated for 16 to 24 hrs by CLSI based broth microdilution method; type: functional; details: time 16-24 hrs
[38] = Toxicity in BALB/c mouse infected with methicillin-resistant Staphylococcus aureus MRSA252 assessed as survival rate at 10 to 20 mg/kg, iv for 7 days; type: organism-based; details: in vivo, 168 h, dose 10-20 mg/kg, time 7 day

Structure (SMILES): CC(C)C[C@@H](N)C(=O)N[C@H]1C(=O)N[C@@H](CC(N)=O)C(=O)N[C@H]2C(=O)N[C@H]3C(=O)N[C@H](C(=O)N[C@H](C(=O)NCc4ccc(-c5ccc(CNC(=N)N)cc5)cc4)c4cc(O)cc(O)c4-c4cc3ccc4O)[C@H](O)c3ccc(c(Cl)c3)Oc3cc2cc(c3O[C@@H]2O[C@H](CO)[C@@H](O)[C@H](O)[C@H]2O[C@H]2C[C@](C)(N)[C@H](O)[C@H](C)O2)Oc2ccc(cc2Cl)[C@H]1O
- Ratio (Enterococcus faecium [1]): 2
- MIC (Acinetobacter baumannii): 64 µg/mL (≈ 38.3 µM)
- fold change (FC) (Staphylococcus aureus [2]): 2
- MIC (Enterococcus faecium [3]): 2 µg/mL (≈ 1.2 µM)
- MRT inf [4]: 20.2 h
- Ratio (Staphylococcus aureus [5]): 2
- Activity (Escherichia coli [6]): 2 log10CFU/ml
- Activity (Escherichia coli [7]): 3 log10CFU/ml
- Activity (Escherichia coli [8]): inactive
- Activity (Staphylococcus aureus [9]): Active
- Activity (Enterococcus faecalis [10]): Active
- Ratio (Peptidoglycan [11]): 2.7
- Ratio (Staphylococcus aureus [12]): 2
- deltaG (Peptidoglycan [13]): -7.96 kcal/mol
- clearance [14]: 4.2 mL/min/kg
- Activity (Escherichia coli [15]): 1 log10CFU/ml
- Activity (Staphylococcus aureus [16]): Active
- half-life [17]: 13.4 h
- Ratio (Peptidoglycan [18]): 1.7
- deltaG (Peptidoglycan [19]): -8.69 kcal/mol
- Activity (Staphylococcus aureus [20]): inactive
- Activity (Staphylococcus aureus [21]): 1.2 log10CFU/ml
- Ratio (Escherichia coli [22]): 2
- Activity (Staphylococcus aureus [23]): inactive
- MIC (Enterococcus faecium [24]): 4 µg/mL (≈ 2.39 µM)
- Ratio (Escherichia coli [25]): 2
- Activity (Staphylococcus aureus [26]): inactive
- Activity (Escherichia coli [27]): Active
- Ka (Peptidoglycan [28]): 1.32e+06 M⁻¹
- Activity (Staphylococcus aureus [29]): Dose-Dependent Effect
- MIC (Enterococcus faecium [30]): 2 µg/mL (≈ 1.2 µM)
- MIC (Pseudomonas aeruginosa): > 128 µg/mL
- Activity (Escherichia coli [31]): Dose-Dependent Effect
- Ratio (Peptidoglycan [32]): 17.3
- Activity (Staphylococcus aureus [33]): Active
- Activity (Staphylococcus aureus [34]): ~1 log10CFU/ml
- deltaG (Peptidoglycan [35]): -8.35 kcal/mol
- MIC (Enterococcus faecalis [36]): ≤ 0.03 µg/mL
- Ratio (Enterococcus faecium [37]): 2
- Activity [38]: 100%

— ChEMBL document CHEMBL6127119 (J Med Chem, 2024)
